According to US8158623B2, “Heptacyclic compounds and the pharmaceutical uses thereof for preventing and treating diabetes and metabolic syndrome” (Shanghai Institute of Materia Medica Chinese Academy of …, priority 2007, dated 2012):
Entries after “also recorded” stand apart in the source; their conditions may differ.

Key:
[1] = tested on: AMP-Activated Protein Kinase (AMPK); experiment: Phosphorylation of AMPK in HepG2 cell (Western blot); assay type: cell-based, Human; conditions: HepG2, 50 uM, 5 minutes, P<0.01 or P<0.05
Protocol: (§1) Human hepatoma carcinoma cell strain (HepG2, purchased from the cell bank of Shanghai Institute of Cell Biology of Chinese Academy) was used. The Human hepatoma carcinoma cells were passaged by 0.1% pancreatin/0.02% EDTA digestion, and cultured in a incubator at 37° C. using MEM culture medium containing 10% FBS, under 5% CO2/95%.
(§2) HepG2 cells were cultured in 6-well plates for 48 hours until 70%-80% confluence. Serum starvation was started by changing medium with MEM containing 0.5% BSA. After starvation for 6 hours, cells were treated with the compounds (final concentration of 50 uM, containing 0.25% DMSO) for 5 minutes. The culture medium was discarded, and cells were harvested and washed for twice with pre-cooled PBS. The washing liquid was discarded, and any residual PBS was blotted dry. DMSO without heptacyclic compounds was used as control.
(§3) Extraction of total cellular protein: 150 μl/well homogenizing buffer (137 mM NaCl, 2.7 mM KCl, 1 mM MgCl2, 0.5 mM Na3VO4, 1% Triton X-100, 10% Glycerol, 20 mM Tris-HCl pH 7.8, 1 ug/ml Leupeptin, 0.2 mM PMSF, 10 mM NaF, 1 ug/ml Aprotinin, 1 mM EDTA, 1 mM DTT, 5 mM Sodium pyrophosphate, 1 mM Benzamidine) was added. Cells were collected into a 1.5 ml centrifuge tube using cell scraper. Cells were homogenized using sonicator (5 W of power) for 2 times (3 seconds per time), and shaken on a shaker for 1 hour. Supernatant (i.e., total cellular protein) was collected by centrifuging at 14000 rpm for 15 min at 4° C., and stored at −70° C. until use. After the protein concentration was determined by Bradford method, the supernatant was formulated as the loading sample with final concentration of 0.6 mg/ml. The whole preparation process was performed at 4° C.
(§4) Protein Electrophoresis: After being treated at 95° C. for 5 min, the loading sample was loaded (15 μg protein/lane). The protein was separated on 7.5% SDS-acrylamide gel for 1-2 hours under the voltage of 80-120 V.
(§5) Electrotransferring the protein and blocking the membrane: After electrophoresis was finished, the protein was transferred to PVDF membrane using semi-dry transferring slot based on 0.8 mA/cm^2 membrane area under the electric current of 80 mA for 2 hours. After that, the membrane was shaken for 2 hours with 7.5% skim milk/TTBS to block the membrane.
(§6) Antigen-antibody reaction: After the blocking process was finished, the membrane was incubated with primary antibody (antibody against phosphorylated ACC (P-ACC) and antibody against phosphorylated AMPK (P-AMPK), all purchased from Cell signaling (USA), with the working concentration of 1:1000) overnight at 4° C. The membrane was removed, and the primary antibody was recovered. The membrane was washed 5 times, each for 10 min in TTBS. The membrane was shaken for 2 hours with the secondary antibody (horseradish peroxidase-conjugated goat-anti-rabbit IgG antibody, purchased from Bio-rad (USA), with the working concentration of 1:5000) at room temperature. The secondary antibody was discarded. The membrane was washed 5 times, each for 10 min in TTBS in order to remove the unbound secondary antibody.
(§7) ECL exposure and development: Luminescent agents, ECL 1, 2, were mixed homogeneously, and incubated with the membrane for 3-5 min. The membrane was removed, wrapped in preservative film, and transferred into dark room for exposure. After exposure with X-film, the film was developed, washed, recorded and conserved.
(§8) Semi-quantitative analysis was performed through optical density scan using computer image analysis system. Grey level of the protein expression was calculated. The target grey level was divided by the grey level of internal standard, and a histogram was plotted, taking the normal group as 1 unit.

3T3-L1 adipocytes = experiment: Glucose uptake in 3T3-L1 adipocytes (3H-labelled 2-deoxyglucose); assay type: cell-based; conditions: for Glucose uptake, Mean, Compound + Insulin Group (Control Group = 1.000): 10 μM, 2 h incubation, with insulin, relative to control without insulin; for fold induction at 10 µM: Mus musculus, 3T3-L1, 2 h incubation, baseline (without insulin), relative to control, read-out: Glucose uptake, Mean, Compound Group (Control Group = 1.000)
Protocol: The effect of the compounds on baseline or insulin-stimulated glucose uptake was evaluated, using the model of glucose uptake in 3T3-L1 adipocytes.
Adipose tissue is the target of glucose metabolism in vivo. The sensitivity for insulin and availability of glucose in adipose tissues are tightly associated with the insulin resistance. The transportation of glucose into adipocytes is a rate-limiting step for the glucose metabolism, and also an important indicator for evaluating the sensitivity for insulin in adipose tissue. 3T3-L1 is a kind of pre-adipocyte, and can become adipocyte after differentiated completely. Therefore, 3T3-L1 is a desirable model for the glucose transport.
Pre-adipocyte, 3T3-L1 was induced to differentiate under certain conditions. After 3T3-L1 differentiated into adipocytes, the compounds of interest with different concentrations and DMSO (used as control) can be added and incubated with the adipocytes for different periods, then the glucose uptake could be determined. For evaluating the ability for a compound to stimulate glucose uptake, the baseline and insulin-induced glucose uptake were determined, and the increase in baseline and insulin-induced glucose uptake upon treatment of the compounds as compared with control group (with 0.1% DMSO) is calculated, based on the ^3H-labelled 2-deoxyglucose inside the cells.
3T3-L1 cells purchased from Karolinska Institute (Sweden) were cultured in DMEM medium containing 10% fetal calf serum at 37° C., under 5% CO2. The cells were passaged every 3-4 days. The cells were inoculated into 12-well plate. Upon confluence, culture medium containing 0.5 mM 3-isobutyl-1-methylxanthine, 0.25 μM dexamethasone and 5 μg/ml insulin was added and cultured for 3 days. Then, the culture medium was replaced by a medium containing 5 μg/ml insulin and further cultured for 3 days. The insulin was removed, and the cells had differentiated completely into mature adipocytes after 2 days which could be used to determine the glucose uptake.
23 compounds chosen by the inventors were added into the culture medium of adipocytes in a dose of 10 μM. After incubation for 2 h, the effect of the compounds on glucose uptake in 3T3-L1 cells was observed. Culture medium without compounds was used as negative control. The control group only supplemented with insulin and the experiment group supplemented with compounds plus insulin were also employed to observe the effect of the compounds on glucose uptake.

[2] = tested on: Acetyl CoA Carboxylase (ACC); experiment: Phosphorylation of ACC in HepG2 cell (Western blot); assay type: cell-based, Human; conditions: HepG2, 50 uM, 5 minutes, P<0.01 or P<0.05
Protocol: as §1, §2, §3, §4, §5, §6, §7, §8

ob/ob mice [3] = experiment: Fasting blood glucose in ob/ob mice, several heptacyclic compounds, 8 days; assay type: in vivo; conditions: for Fasting blood glucose change in words: dosed continuously for 8 days, P<0.05
Protocol: Genetic spontaneous diabetes ob/ob mice were purchased from Jackson (USA), and maintained in a SPF facility (temperature: 22-24° C., humidity: 45-80%, illumination: 150-300 Lx, 12/12-hour light/dark cycle). Fasting blood glucose was determined for 3 days continuously when the mice were 7 weeks old. The mice were grouped into the treatment group and the control group (6 animals per group) according to the results determined. The treatment groups were administered orally with compound E9, G0 and F7 (psoromic acid) (100 mg/kg), and the control group was administered orally with a solution of 0.1% Tween 80 (blank control), once daily for 8 days. Fasting blood glucose in mice was determined at the end of experiment.

ob/ob mice [4] = experiment: Hypoglycemic effect of the combination of F7 with Glibenclamide; assay type: in vivo; conditions: Glibenclamide 25 mg/kg oral, with or without F7 50 mg/kg oral pretreatment for 10 days
Protocol: (§9) Genetic spontaneous diabetes ob/ob mice were purchased from Jackson (USA), and maintained in a SPF facility (temperature: 22-24° C., humidity: 45-80%, illumination: 150-300 Lx, 12/12-hour light/dark cycle). Fasting blood glucose was determined daily for 3 days continuously when the mice were 7 weeks old. The mice were grouped into the pretreatment group of Compound F7 and non-pretreatment group (16 animals per group) according to the results determined. The groups were administered orally with compound F7 (50 mg/kg) or a solution of 0.1% Tween 80 respectively, once daily for 10 days. The pretreatment group and the non-pretreatment group were divided into two subsets (8 animals per subset) respectively, and subcutaneously injected with insulin (0.6 U/kg) or orally administered with Glibenclamide (25 mg/kg) respectively. Then, blood glucose levels were measured at different time points and the percentage of change in blood glucose level was calculated.

ob/ob mice [5] = experiment: Hypoglycemic effect of the combination of F7 with insulin; assay type: in vivo; conditions: insulin 0.6 U/kg s.c., with or without F7 50 mg/kg oral pretreatment for 10 days
Protocol: as §9

[6] = oral 100 mg/kg once daily, after 8 days treatment

| Compound | Level of phosphorylation for AMPK protein versus DMSO control [1] | Glucose uptake, Mean, Compound + Insulin Group (Control Group = 1.000) (3T3-L1 adipocytes) | fold induction at 10 µM (3T3-L1 adipocytes) | Level of phosphorylation for ACC protein versus DMSO control [2] | Fasting Blood Glucose (ob/ob mice [3]; before administration) | Fasting Blood Glucose (ob/ob mice [3]; [6]) | other results |
| --- | --- | --- | --- | --- | --- | --- | --- |
| COc1cc(C(=O)O)c2c(c1C)OC(=O)c1c(C)cc(O)c(CNc3ccccc3)c1O2 [Compound B9, 3-Hydroxy-8-methoxy-1,9-dimethyl-11-oxo-4-phenylaminomethyl-11H-dibenzo[b,e][1,4]dioxepine-6-carboxylic acid] | increased significantly | 2.824 | 1.16 | improved significantly | – | – | – |
| COc1cc(C(=O)O)c2c(c1C)OC(=O)c1c(C)cc(O)c(CNCCn3cccc3)c1O2 [Compound C1, 3-Hydroxy-8-methoxy-1,9-dimethyl-11-oxo-4-[(2-pyrrol-1-yl-ethylamino)-methyl]-11H-dibenzo[b,e][1,4]dioxepine-6-carboxylic acid] | increased significantly | 4.059 | 1.21 | improved significantly | – | – | – |
| COc1cc(C(=O)O)c2c(c1C)OC(=O)c1c(C)cc(O)c(CNCCN3CCOCC3)c1O2 [Compound C7, 3-Hydroxy-8-methoxy-1,9-dimethyl-4-[(2-morpholin-4-yl-ethylamino)-methyl]-11-oxo-11H-dibenzo[b,e][1,4]dioxepine-6-carboxylic acid] | increased significantly | 3.610 | 1.22 | improved significantly | – | – | – |
| COc1cc(C(=O)O)c2c(c1C)OC(=O)c1c(C)cc(O)c(CO)c1O2 [Compound E9, 3-Hydroxy-4-hydroxymethyl-8-methoxy-1,9-dimethyl-11-oxo-11H-dibenzo[b,e][1,4]dioxepine-6-carboxylic acid] | significant up-regulation; also recorded: increased significantly | 2.965 | 1.1 | improved significantly | 11.99 ± 1.48 mM | 8.68 ± 1.32 mM | Fasting blood glucose change in words (ob/ob mice [3]): reduced statistically significant |
| CCOCc1c(O)c(C(=O)O)c(C)c2c1OC(=O)c1c(C)cc(O)c(C=O)c1O2 [Compound G0, 9-Ethoxymethyl-4-formyl-3,8-dihydroxy-1,6-dimethyl-11-oxo-11H-dibenzo[b,e][1,4]dioxepine-7-carboxylic acid] | increased significantly | 1.297 | 1.22 | improved significantly | 11.95 ± 1.49 mM | 8.07 ± 1.07 mM | Fasting blood glucose change in words (ob/ob mice [3]): reduced statistically significant |
| COc1ccc(Cl)cc1C(=O)NCCc1ccc(S(=O)(=O)NC(=O)NC2CCCCC2)cc1 [Glibenclamide] | – | – | – | – | – | – | The percentage of change in blood glucose level (ob/ob mice [4]; 1 h): 90.2 ± 7.3%; The percentage of change in blood glucose level (ob/ob mice [4]; 2 h): 76.7 ± 10.2%; The percentage of change in blood glucose level (ob/ob mice [4]; 3 h): 68.0 ± 7.3% |
| CN(C)C(=N)N=C(N)N [Metformin, reference compound] | – | – | – | – | 12.27 ± 2.69 mM | 8.13 ± 2.76 mM | – |
| Insulin | – | – | – | – | – | – | The percentage of change in blood glucose level (ob/ob mice [5]; 15 minutes): 113.9 ± 8.3%; The percentage of change in blood glucose level (ob/ob mice [5]; 40 minutes): 96.3 ± 18.0%; The percentage of change in blood glucose level (ob/ob mice [5]; 90 minutes): 90.6 ± 14.7%; The percentage of change in blood glucose level (ob/ob mice [5]; 120 minutes): 101.6 ± 11.2% |
